Results published in patent publication US12497359B2, “Acrylamide derivatives” (NRG Therapeutics Ltd, priority 2020, dated 2025).
≈ marks a conversion by molar mass, not a printed value.

What was measured:
PBS solubility = type: physicochemical; details: aqueous buffer, kinetic from dmso stock; PBS pH 7.4, 2 hr at 25° C.
Description: (§1) Test compounds were prepared as 10 mM stocks in DMSO and 15 μl samples transferred in duplicate into 1.5 mL glass flat bottom vials (BioTech Solutions). Fasted state simulated intestinal fluid (FaSSIF) or PBS (pH 7.4) was added to each vial to final volume of 500 μl. One PTFE encapsulated stir stick (V&P Scientific) was placed in each vial before sealing with PTFE/SIL plugs (BioTech Solutions). Vials were shaken at 1100 rpm for 2 hr at 25° C. Samples were then filtered through MultiScreen Solvinert filter plates (Millipore) via vacuum filtration. Aliquots of filtrate (5 μl) plus 5 μl DMSO were diluted in 490 μl 50% acetonitrile in water containing internal standard. The filtrate was analysed and quantified against a standard of known concentration using LC-MS/MS. Solubility values of the test compound and control compound were calculated as follows: [Sample]=(Area ratiosample*INJ VOL STD*DFsample*[STD])/(Area ratio STD*INJ VOLsample).

mPTP [1] = assay: mPTP activity assay in isolated rat liver mitochondria (Ca2+ retention, Fluo5N, FLIPR); type: biochemical; details: isolated rat liver mitochondria; average value from multiple experiments (n ≥ 2)
Source text: Pharmacological inhibition or modulation of the mPTP can be measured in well characterised ‘Ca^2+ retention’ assays performed in isolated mitochondria. In vitro, isolated mitochondria rapidly sequester exogenous Ca^2+ until the intramitochondrial Ca^2+ concentration reaches the threshold for mPTP activation. Once the pore is activated, mitochondrial integrity is compromised and the stored Ca^2+ is released. The distribution of Ca^2+ between extra- and intra-mitochondrial compartments can be measured in real time with the use of membrane-impermeant Ca^2+ sensitive fluorescent dyes. Depending on the configuration of the assay, inhibition or modulation of the mPTP either delays the opening of the pore or increases the concentration of Ca^2+ required to induce mPTP opening.
mPTP activity was measured in mitochondria freshly isolated from female Sprague Dawley (250 to 300 gram) rat livers using the following method. Cervical dislocation was performed on the rat. The liver was then perfused in-situ with ˜40 ml cold Dulbecco's Phosphate Buffered Saline (DPBS) prior to dissection and transferred into 30 ml Isolation Buffer (250 mM Sucrose, 10 mM KCl, 1 mM EGTA, 1 mM EDTA, 25 mM HEPES, adjusted to pH 7.5 with 1 M NaOH). Each lobe of the liver was then removed from the buffer, minced using tweezers and a scalpel into ˜5 mm pieces then transferred into a 50 ml Potterton dounce homogenization tube on ice containing 30 ml ice-cold centrifugation buffer (300 mM Trehalose, 25 mM HEPES, 1 mM EGTA, 1 mM EDTA, 10 mM KCl, adjusted to pH 7.5 with 1 M NaOH and supplemented with 0.1% bovine serum albumin (BSA) and complete protease inhibitor cocktail (one tablet of inhibitor per 50 mls of buffer). Homogenisation was carried out using a teflon pestle at 1800 rpm. The slurry was centrifuged at 800 g for 10 min at 4° C., then the supernatant centrifuged at 10,000 g for 10 min. The pellet was washed once with FLIPR assay buffer (75 mM Mannitol, 25 mM Sucrose, 5 mM Potassium Phosphate Monobasic, 20 mM Tris base, 100 mM KCl, 0.1% BSA adjusted to pH 7.4 with 5 M HCl) centrifuged again, then resuspended in FLIPR assay buffer to a concentration of 8.8 mg/ml protein.
Test compounds (10 mM stock in DMSO) were serially diluted in DMSO in half log steps to generate 10 test concentrations (final concentrations in assay 30 μM to 1 nM). An intermediate dilution of 5 μl DMSO samples into 247 μl FLIPR assay buffer was carried out prior to transfer of 5 μl into duplicate wells of a 384 well polypropylene assay plate. Control wells were 0.5% (v/v) DMSO and 5 μM cyclosporin A.
A stock mitochondria/Fluo5N assay solution was prepared in 5.6 ml FLIPR assay buffer (at RT) supplemented with succinate disodium salt (10 mM), rotenone (1 μM), Fluo5N pentapotassium salt (2 μM) and 1 ml mitochondria suspension, then transferred (15 μl) into the assay plate containing test compounds and incubated for 10 min at RT. Assay plates were then transferred to a FLIPR Tetra plate reader (Molecular Devices). Dye fluorescence was then measured every 3 sec for a total of 10 min. After 12 sec, a 2.5 μl bolus of CaCl2 (75 μM) was added from a source plate containing 675 μM CaCl2 in FLIPR assay buffer. IC50 values for test compounds were calculated using the fluorescence value collected at the 10 min timepoint with % inhibition calculated using the DMSO control and cyclosporin A values as […] respectively.

FaSSIF solubility = type: physicochemical; details: kinetic from dmso stock, Fasted state simulated intestinal fluid, 2 hr at 25° C.
Description: as §1

mPTP [2] = assay: mPTP activity assay in isolated rat brain mitochondria; type: biochemical; details: isolated rat brain mitochondria
Description: MPTP activity was measured in brain mitochondria freshly isolated from female Sprague Dawley (250 to 300 gram) rats. Anaesthetised rats were perfused in-situ with ˜40 ml cold Dulbecco's Phosphate Buffered Saline (DPBS), then brains dissected and transferred into 30 ml Isolation Buffer (225 mM mannitol, 75 mM sucrose, 1 mM EGTA, adjusted to pH 7.4 with 1 M NaOH). The brain was minced using tweezers and a scalpel into ˜5 mm pieces then transferred into a 50 ml Potterton Dounce homogenization tube on ice containing 10 ml ice-cold isolation buffer (as above with addition of Complete Protease inhibitor; 1 tablet per 50 ml buffer). Homogenisation was carried out using a teflon pestle at 1800 rpm. The slurry was centrifuged at 2000 g for 10 min at 4° C., then the supernatant centrifuged at 12,000 g for 9 min. The pellet was resuspended with a dounce homogeniser in isolation buffer as above but with the addition of 0.02% digitonin, centrifuged at 12,000 g for 11 min and finally resuspended in 5 ml modified isolation buffer (as above but with EGTA reduced to 0.1 mM).
Test compounds were prepared in 384 well polypropylene assay plates as described above for the liver mitochondria assay. A stock mitochondria/Fluo5N assay solution was prepared in 5.6 ml assay buffer (120 mM mannitol, 40 mM MOPS, 5 mM KH2PO4, 60 mM KCl, 10 mM pyruvate, 2 mM malate, 2 mM MgCl2, 20 μM ADP, 1.26 μM oligomycin A, adjusted to pH 7.4) supplemented with Fluo5N pentapotassium salt (2 μM) and 1 ml mitochondria suspension, then transferred (15 μl) into the assay plate containing test compounds and incubated for 10 min at RT. Assay plates were then transferred to a FLIPR Tetra plate reader (Molecular Devices). Dye fluorescence was then measured every 3 sec for a total of 10 min. After 12 sec, a 2.5 μl bolus of Ca2+(75 μM) was added from a source plate containing 675 μM CaCl2 in FLIPR assay buffer. IC50 values for test compounds were calculated using the fluorescence value collected at the 10 min timepoint with % inhibition calculated using the DMSO control and cyclosporin A values at […].

[3] = Hepatocyte clearance assay, human; type: in vitro ADME; details: cryopreserved primary human hepatocytes, average value from two experiments, read-out: Human heps intrinsic clearance (CLint)
Description: (§2) In vitro clearance studies were performed in primary rat and human hepatocytes (BioIVT). Vials of cryopreserved rat or human hepatocytes were thawed in a 37° C. water bath for 2 min. Cells were transferred into thawing medium (Williams' Medium E containing 30% Percoll, 1× GlutaMAX-1, 15 mM HEPES, 5% fetal bovine serum (FBS), 4 μg/ml insulin, 1 μM dexamethasone), centrifuged at 100 g for 10 min then resuspended in culture medium (Leibovitz's L-15 Medium) at a concentration of 0.5×10^6 viable cells/mL (number of viable cells assessed using AO/PI staining). Hepatocytes (198 μL) were transferred into wells of a 96-well non-coated plate and placed in a 37° C. incubator for 10 min. Test compound solutions were prepared from 10 mM stocks in DMSO, diluted to 100 μM in 50% (v/v in water) acetonitrile. Test compound samples (2 μl) were added to each well of hepatocytes and incubated at 37° C. Samples (25 μl) were collected at t=0, 15, 30, […] and 120 min, mixed with 6 volumes (150 μl) of acetonitrile containing internal standard (100 nM alprazolam, 200 nM caffeine and 100 nM tolbutamide), vortexed for 5 min and centrifuged for 45 min at 3220 g. An aliquot of supernatant (100 μL) was diluted with 100 μL ultra-pure water, and the mixture was used for LC/MS/MS analysis. All incubations were performed in duplicate. Peak areas were determined from extracted ion chromatograms. The slope value, k, was determined by linear regression of the natural logarithm of the remaining percentage of the parent drug vs. incubation time curve. The in vitro half-life (in vitro t1/2) was determined from the slope value: in vitro t1/2=0.693/k. Conversion of the in vitro t1/2 (in min) into the in vitro intrinsic clearance (in vitro CLint, in μL/min/1×10^6 cells) was done using the following equation (mean of duplicate determinations): • in vitro CLint=kV/N • V=incubation volume (0.2 mL) • N=number of hepatocytes per well (0.1×10^6 cells). Microsomal Clearance Assay

[4] = Hepatocyte clearance assay, rat; type: in vitro ADME; details: cryopreserved primary rat hepatocytes, average value from two experiments, read-out: Rat heps intrinsic clearance (CLint)
Description: as §2

| Structure (SMILES) | solubility at 2 h (PBS solubility) | mPTP Rat liver pIC50* (mPTP [1]) | solubility at 2 h (FaSSIF solubility) | mPTP Rat brain pIC50 (mPTP [2]) | hepatocyte CLint at 1 µM [3] | hepatocyte CLint at 1 µM [4] |
| --- | --- | --- | --- | --- | --- | --- |
| Cc1cccc(C)c1NC(=O)/C=C/c1ccc2cn[nH]c2c1 [Example 24, (E)-N-(2,6-dimethylphenyl)-3-(1H-indazol-6-yl)acrylamide] | 1.2 µM (≈ 0.35 µg/mL) | 7.6 | 3 µM (≈ 0.874 µg/mL) | 7.6 |  |  |
| O=C(/C=C/c1ccc2cn[nH]c2c1)Nc1ccccc1CCN1CC(F)C1 [Example 32, (E)-N-(2-(2-(3-fluoroazetidin-1-yl)ethyl)phenyl)-3-(1H-indazol-6-yl)acrylamide] |  | 5.8 | 296 µM (≈ 108 µg/mL) |  | 31 µL/min/1e6 cells | 64 µL/min/1e6 cells |
| CO[C@H]1Cc2ccccc2[C@@H]1NC(=O)/C=C/c1ccc2cn[nH]c2c1 [Example 37, (E)-3-(1H-indazol-6-yl)-N-((1S,2S)-2-methoxy-2,3-dihydro-1H-inden-1-yl)acrylamide] |  | 7.5 | 80 µM (≈ 26.7 µg/mL) |  | 13 µL/min/1e6 cells | 25 µL/min/1e6 cells |
